Measured values published in the kinase profiling compilation of Christmann-Franck et al. (2016).

What was measured:
Experiment in all cases: radiometric filter-binding kinase assay
NUAK1 (human) = NUAK1 (human) (UniProt O60285)
RPS6KA3 KD1 KD2 (human) = RPS6KA3 KD1 KD2 (human) (UniProt P51812)
NEK6 (human) = NEK6 (human) (UniProt Q9HC98)
TTK (human) = TTK (human) (UniProt P33981)
PIM2 (human) = PIM2 (human) (UniProt Q9P1W9)
IKBKB (human) = IKBKB (human) (UniProt O14920)
DYRK2 (human) = DYRK2 (human) (UniProt Q92630)
CHEK1 (human) = CHEK1 (human) (UniProt O14757)
[1] = target: STK11 CAB39 STRADA (human) (UniProt Q9Y376+Q7RTN6+Q15831)
PKN2 (human) = PKN2 (human) (UniProt Q16513)
PRKACA (human) = PRKACA (human) (UniProt P17612)
NEK2 (human) = NEK2 (human) (UniProt P51955)
ROCK2 (rat) = conditions: accession and sequence are those of the human protein
PRKCZ (human) = PRKCZ (human) (UniProt Q05513)
Sequence of PRKCZ (human) (Q05513 whole entry, looked up): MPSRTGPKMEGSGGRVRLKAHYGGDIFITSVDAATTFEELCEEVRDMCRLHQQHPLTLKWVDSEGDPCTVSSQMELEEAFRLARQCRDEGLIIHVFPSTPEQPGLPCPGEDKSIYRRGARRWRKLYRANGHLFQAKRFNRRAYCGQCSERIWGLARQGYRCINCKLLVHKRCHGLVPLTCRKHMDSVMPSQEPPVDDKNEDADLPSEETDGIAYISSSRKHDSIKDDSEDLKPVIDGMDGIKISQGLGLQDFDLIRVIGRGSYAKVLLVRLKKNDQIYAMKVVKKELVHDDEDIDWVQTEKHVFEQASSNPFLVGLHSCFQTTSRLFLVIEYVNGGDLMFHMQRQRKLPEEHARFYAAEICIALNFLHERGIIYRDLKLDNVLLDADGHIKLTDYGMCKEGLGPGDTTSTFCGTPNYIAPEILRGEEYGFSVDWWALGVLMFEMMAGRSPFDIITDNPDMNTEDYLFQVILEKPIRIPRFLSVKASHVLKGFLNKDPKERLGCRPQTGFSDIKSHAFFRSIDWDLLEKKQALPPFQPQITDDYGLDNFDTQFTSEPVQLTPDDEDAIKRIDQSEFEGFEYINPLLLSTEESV

PIM1 (human) = PIM1 (human) (UniProt P11309)
RIPK2 (human) = RIPK2 (human) (UniProt O43353)
Sequence of RIPK2 (human) (O43353 whole entry, looked up): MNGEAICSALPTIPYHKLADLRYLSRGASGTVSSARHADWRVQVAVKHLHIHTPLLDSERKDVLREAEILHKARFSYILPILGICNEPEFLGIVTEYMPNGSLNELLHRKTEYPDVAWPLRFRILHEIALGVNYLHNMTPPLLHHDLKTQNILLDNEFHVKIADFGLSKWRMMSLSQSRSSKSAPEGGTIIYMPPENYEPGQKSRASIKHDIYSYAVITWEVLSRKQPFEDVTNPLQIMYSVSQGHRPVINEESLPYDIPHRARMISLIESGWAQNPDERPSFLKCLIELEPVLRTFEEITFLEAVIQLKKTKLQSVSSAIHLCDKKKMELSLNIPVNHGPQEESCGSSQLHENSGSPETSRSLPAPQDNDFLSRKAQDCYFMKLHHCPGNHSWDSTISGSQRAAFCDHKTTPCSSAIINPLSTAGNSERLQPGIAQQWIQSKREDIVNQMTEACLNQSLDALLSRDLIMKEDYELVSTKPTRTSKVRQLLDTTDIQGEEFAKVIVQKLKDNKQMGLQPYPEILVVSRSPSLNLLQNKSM

GSK3B (human) = GSK3B (human) (UniProt P49841)
Sequence of GSK3B (human) (P49841 whole entry, looked up): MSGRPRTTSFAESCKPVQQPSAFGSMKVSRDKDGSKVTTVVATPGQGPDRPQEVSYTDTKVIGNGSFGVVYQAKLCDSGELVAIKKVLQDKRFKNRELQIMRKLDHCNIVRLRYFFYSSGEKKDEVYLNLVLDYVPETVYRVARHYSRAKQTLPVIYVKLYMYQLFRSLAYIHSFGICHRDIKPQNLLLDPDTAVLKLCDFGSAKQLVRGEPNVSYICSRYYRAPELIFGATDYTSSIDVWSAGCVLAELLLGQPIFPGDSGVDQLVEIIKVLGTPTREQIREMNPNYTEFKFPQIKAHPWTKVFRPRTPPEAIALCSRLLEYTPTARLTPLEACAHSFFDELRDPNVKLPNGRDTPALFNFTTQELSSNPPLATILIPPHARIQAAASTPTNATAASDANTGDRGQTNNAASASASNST

INSR (human) = INSR (human) (UniProt P06213)
DCLK2 (human) = DCLK2 (human) (UniProt Q8N568)
BRSK2 (human) = BRSK2 (human) (UniProt Q8IWQ3)
YES1 (human) = YES1 (human) (UniProt P07947)
Sequence of YES1 (human) (P07947 whole entry, looked up): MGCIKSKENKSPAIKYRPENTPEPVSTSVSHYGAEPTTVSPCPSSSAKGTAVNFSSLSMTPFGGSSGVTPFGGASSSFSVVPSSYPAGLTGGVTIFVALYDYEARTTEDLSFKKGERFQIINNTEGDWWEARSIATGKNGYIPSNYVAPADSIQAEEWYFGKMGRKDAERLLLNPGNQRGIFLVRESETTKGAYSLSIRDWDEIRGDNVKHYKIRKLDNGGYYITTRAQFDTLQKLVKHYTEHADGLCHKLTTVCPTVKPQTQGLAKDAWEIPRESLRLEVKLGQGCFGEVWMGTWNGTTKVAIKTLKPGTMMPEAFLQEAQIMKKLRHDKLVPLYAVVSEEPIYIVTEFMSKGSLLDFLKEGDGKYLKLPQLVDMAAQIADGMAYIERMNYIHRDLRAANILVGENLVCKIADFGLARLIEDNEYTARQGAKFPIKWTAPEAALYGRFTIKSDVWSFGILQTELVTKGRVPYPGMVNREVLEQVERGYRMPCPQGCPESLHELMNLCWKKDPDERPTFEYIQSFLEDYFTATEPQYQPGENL

MELK (human) = MELK (human) (UniProt Q14680)
PAK6 (human) = PAK6 (human) (UniProt Q9NQU5)
PRKCA (human) = PRKCA (human) (UniProt P17252)
MAP3K7 TAB1 (human) = MAP3K7 TAB1 (human) (UniProt Q15750+O43318)
PIM3 (human) = PIM3 (human) (UniProt Q86V86)
RPS6KA1 KD1 KD2 (human) = RPS6KA1 KD1 KD2 (human) (UniProt Q15418)
BTK (human) = BTK (human) (UniProt Q06187)
MARK1 (human) = MARK1 (human) (UniProt Q9P0L2)
Sequence of MARK1 (human) (Q9P0L2 whole entry, looked up): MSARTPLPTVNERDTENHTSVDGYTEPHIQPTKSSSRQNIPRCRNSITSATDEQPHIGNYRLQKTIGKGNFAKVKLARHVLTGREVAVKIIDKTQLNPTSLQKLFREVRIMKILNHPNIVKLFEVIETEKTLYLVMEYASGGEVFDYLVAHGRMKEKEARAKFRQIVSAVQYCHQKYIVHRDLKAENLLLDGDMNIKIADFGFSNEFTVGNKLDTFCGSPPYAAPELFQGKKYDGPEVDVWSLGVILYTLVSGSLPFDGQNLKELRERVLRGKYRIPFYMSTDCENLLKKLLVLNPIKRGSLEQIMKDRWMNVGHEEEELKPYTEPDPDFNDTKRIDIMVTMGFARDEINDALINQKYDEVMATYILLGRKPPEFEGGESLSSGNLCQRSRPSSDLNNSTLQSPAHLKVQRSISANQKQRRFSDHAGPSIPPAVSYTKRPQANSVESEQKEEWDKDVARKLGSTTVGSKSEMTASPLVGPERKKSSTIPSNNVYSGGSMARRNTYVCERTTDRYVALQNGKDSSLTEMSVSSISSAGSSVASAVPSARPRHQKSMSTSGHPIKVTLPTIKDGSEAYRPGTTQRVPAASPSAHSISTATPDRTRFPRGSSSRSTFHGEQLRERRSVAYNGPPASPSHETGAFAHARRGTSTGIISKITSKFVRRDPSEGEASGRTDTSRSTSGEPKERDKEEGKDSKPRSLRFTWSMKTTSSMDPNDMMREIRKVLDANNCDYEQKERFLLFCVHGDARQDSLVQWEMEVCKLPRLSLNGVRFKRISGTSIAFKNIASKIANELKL

MAPK9 (human) = MAPK9 (human) (UniProt P45984)
Sequence of MAPK9 (human) (P45984 whole entry, looked up): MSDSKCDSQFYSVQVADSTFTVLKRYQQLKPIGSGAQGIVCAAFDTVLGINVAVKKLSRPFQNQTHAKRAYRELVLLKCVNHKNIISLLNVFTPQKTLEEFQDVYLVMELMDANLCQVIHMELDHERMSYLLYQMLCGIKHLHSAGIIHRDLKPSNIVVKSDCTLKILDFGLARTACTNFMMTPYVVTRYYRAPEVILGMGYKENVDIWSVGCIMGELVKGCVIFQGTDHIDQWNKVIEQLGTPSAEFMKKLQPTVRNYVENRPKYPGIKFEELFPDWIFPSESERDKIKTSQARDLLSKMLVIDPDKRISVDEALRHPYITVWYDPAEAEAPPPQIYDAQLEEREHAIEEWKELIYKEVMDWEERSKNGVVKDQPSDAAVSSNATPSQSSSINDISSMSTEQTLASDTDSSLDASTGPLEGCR

MAP2K1 (human) = MAP2K1 (human) (UniProt Q02750)
EPHB4 (human) = EPHB4 (human) (UniProt P54760)
CAMKK2 (human) = CAMKK2 (human) (UniProt Q96RR4)

Sequence of NUAK1 (human) (O60285 whole entry, looked up): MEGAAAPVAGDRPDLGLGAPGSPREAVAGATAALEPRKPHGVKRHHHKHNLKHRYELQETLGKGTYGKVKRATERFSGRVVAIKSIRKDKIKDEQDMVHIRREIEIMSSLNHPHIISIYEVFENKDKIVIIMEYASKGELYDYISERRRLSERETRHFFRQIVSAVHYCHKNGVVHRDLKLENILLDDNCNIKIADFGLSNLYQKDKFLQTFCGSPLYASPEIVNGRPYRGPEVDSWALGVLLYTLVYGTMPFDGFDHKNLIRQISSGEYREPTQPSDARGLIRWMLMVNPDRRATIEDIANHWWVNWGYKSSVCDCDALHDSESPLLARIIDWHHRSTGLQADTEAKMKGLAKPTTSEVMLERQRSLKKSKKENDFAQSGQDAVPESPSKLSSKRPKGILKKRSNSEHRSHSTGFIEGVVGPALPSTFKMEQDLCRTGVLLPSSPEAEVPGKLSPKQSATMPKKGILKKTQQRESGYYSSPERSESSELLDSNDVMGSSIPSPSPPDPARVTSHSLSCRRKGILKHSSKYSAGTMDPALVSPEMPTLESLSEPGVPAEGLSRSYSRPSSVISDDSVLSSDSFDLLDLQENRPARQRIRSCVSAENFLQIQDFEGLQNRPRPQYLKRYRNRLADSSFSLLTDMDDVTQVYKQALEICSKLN
Sequence of PIM2 (human) (Q9P1W9 whole entry, looked up): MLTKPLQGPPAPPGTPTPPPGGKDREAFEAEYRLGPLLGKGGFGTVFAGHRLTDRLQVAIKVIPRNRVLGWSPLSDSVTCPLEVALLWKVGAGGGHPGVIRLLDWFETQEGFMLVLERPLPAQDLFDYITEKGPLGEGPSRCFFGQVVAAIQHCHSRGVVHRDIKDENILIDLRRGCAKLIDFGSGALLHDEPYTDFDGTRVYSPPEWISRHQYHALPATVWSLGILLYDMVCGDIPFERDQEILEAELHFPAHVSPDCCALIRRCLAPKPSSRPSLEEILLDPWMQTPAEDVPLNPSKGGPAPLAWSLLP
Sequence of RPS6KA3 KD1 KD2 (human) (P51812 whole entry, looked up): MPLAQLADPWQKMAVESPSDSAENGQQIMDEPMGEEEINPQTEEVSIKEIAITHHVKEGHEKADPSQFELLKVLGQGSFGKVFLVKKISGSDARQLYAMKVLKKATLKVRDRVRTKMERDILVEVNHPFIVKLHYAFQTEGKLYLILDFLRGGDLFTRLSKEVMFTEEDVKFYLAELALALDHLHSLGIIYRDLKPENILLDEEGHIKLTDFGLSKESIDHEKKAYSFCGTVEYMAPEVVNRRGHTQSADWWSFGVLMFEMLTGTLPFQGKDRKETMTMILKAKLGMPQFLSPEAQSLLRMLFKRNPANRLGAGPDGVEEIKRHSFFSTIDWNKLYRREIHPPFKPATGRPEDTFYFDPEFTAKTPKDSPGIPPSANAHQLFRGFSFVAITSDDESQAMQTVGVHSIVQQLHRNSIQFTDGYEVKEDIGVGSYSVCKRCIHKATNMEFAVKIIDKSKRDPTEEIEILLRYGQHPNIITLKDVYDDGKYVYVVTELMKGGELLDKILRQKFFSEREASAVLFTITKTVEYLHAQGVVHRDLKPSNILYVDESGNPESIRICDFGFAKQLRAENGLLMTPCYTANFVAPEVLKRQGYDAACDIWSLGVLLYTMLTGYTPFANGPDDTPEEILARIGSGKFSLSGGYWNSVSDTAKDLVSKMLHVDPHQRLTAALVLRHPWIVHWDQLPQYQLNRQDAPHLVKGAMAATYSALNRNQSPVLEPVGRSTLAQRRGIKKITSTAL

COc1cc(C(=O)N2CCC(N3CCN(C)CC3)CC2)ccc1Nc1ncc2c(n1)N(C)c1ccccc1C(=O)N2C
IC50 (NUAK1 (human)): 5000 nM | residual activity (NUAK1 (human); compound 1.0 µM): 50% | residual activity (NUAK1 (human); compound 10.0 µM): 19% | residual activity (RPS6KA3 KD1 KD2 (human); compound 1.0 µM): 84% | residual activity (RPS6KA3 KD1 KD2 (human); compound 10.0 µM): 59% | residual activity (NEK6 (human); compound 1.0 µM): 90% | residual activity (NEK6 (human); compound 10.0 µM): 110% | residual activity (TTK (human); compound 1.0 µM): 84% | residual activity (TTK (human); compound 10.0 µM): 91% | residual activity (PIM2 (human); compound 1.0 µM): 87% | residual activity (PIM2 (human); compound 10.0 µM): 97% | residual activity (IKBKB (human); compound 1.0 µM): 103% | residual activity (IKBKB (human); compound 10.0 µM): 106% | residual activity (DYRK2 (human); compound 1.0 µM): 90% | residual activity (DYRK2 (human); compound 10.0 µM): 98% | residual activity (CHEK1 (human); compound 1.0 µM): 82% | residual activity (CHEK1 (human); compound 10.0 µM): 96% | residual activity ([1]; compound 1.0 µM): 78% | residual activity ([1]; compound 10.0 µM): 78% | residual activity (PKN2 (human); compound 1.0 µM): 74% | residual activity (PKN2 (human); compound 10.0 µM): 80% | residual activity (PRKACA (human); compound 1.0 µM): 79% | residual activity (PRKACA (human); compound 10.0 µM): 93% | residual activity (NEK2 (human); compound 1.0 µM): 92% | residual activity (NEK2 (human); compound 10.0 µM): 110% | residual activity (ROCK2 (rat); compound 1.0 µM): 84% | residual activity (ROCK2 (rat); compound 10.0 µM): 84% | residual activity (PRKCZ (human); compound 1.0 µM): 94% | residual activity (PRKCZ (human); compound 10.0 µM): 104% | residual activity (PIM1 (human); compound 1.0 µM): 94% | residual activity (PIM1 (human); compound 10.0 µM): 87% | residual activity (RIPK2 (human); compound 1.0 µM): 103% | residual activity (RIPK2 (human); compound 10.0 µM): 101% | residual activity (GSK3B (human); compound 1.0 µM): 90% | residual activity (GSK3B (human); compound 10.0 µM): 95% | residual activity (INSR (human); compound 1.0 µM): 104% | residual activity (INSR (human); compound 10.0 µM): 103% | IC50 (DCLK2 (human)): 210 nM | residual activity (BRSK2 (human); compound 1.0 µM): 89% | residual activity (BRSK2 (human); compound 10.0 µM): 87% | residual activity (YES1 (human); compound 1.0 µM): 86% | residual activity (YES1 (human); compound 10.0 µM): 82% | residual activity (MELK (human); compound 1.0 µM): 88% | residual activity (MELK (human); compound 10.0 µM): 92% | residual activity (PAK6 (human); compound 1.0 µM): 94% | residual activity (PAK6 (human); compound 10.0 µM): 89% | residual activity (PRKCA (human); compound 1.0 µM): 95% | residual activity (PRKCA (human); compound 10.0 µM): 97% | residual activity (MAP3K7 TAB1 (human); compound 1.0 µM): 85% | residual activity (MAP3K7 TAB1 (human); compound 10.0 µM): 82% | residual activity (PIM3 (human); compound 1.0 µM): 97% | residual activity (PIM3 (human); compound 10.0 µM): 76% | residual activity (RPS6KA1 KD1 KD2 (human); compound 1.0 µM): 97% | residual activity (RPS6KA1 KD1 KD2 (human); compound 10.0 µM): 367% | residual activity (BTK (human); compound 1.0 µM): 95% | residual activity (BTK (human); compound 10.0 µM): 75% | residual activity (MARK1 (human); compound 1.0 µM): 89% | residual activity (MARK1 (human); compound 10.0 µM): 93% | residual activity (MAPK9 (human); compound 1.0 µM): 79% | residual activity (MAPK9 (human); compound 10.0 µM): 98% | residual activity (MAP2K1 (human); compound 1.0 µM): 94% | residual activity (MAP2K1 (human); compound 10.0 µM): 86% | residual activity (EPHB4 (human); compound 1.0 µM): 90% | residual activity (EPHB4 (human); compound 10.0 µM): 107% | residual activity (CAMKK2 (human); compound 1.0 µM): 89% | residual activity (CAMKK2 (human); compound 10.0 µM): 53%
